Columns and labels:
[1] = target: T1, human aldehyde dehydrogenase 2 (ALDH2) (Homo sapiens, UniProt P05091); test: Reversible inhibition of ALDH2; type: biochemical
T1 sequence (P05091 18-517): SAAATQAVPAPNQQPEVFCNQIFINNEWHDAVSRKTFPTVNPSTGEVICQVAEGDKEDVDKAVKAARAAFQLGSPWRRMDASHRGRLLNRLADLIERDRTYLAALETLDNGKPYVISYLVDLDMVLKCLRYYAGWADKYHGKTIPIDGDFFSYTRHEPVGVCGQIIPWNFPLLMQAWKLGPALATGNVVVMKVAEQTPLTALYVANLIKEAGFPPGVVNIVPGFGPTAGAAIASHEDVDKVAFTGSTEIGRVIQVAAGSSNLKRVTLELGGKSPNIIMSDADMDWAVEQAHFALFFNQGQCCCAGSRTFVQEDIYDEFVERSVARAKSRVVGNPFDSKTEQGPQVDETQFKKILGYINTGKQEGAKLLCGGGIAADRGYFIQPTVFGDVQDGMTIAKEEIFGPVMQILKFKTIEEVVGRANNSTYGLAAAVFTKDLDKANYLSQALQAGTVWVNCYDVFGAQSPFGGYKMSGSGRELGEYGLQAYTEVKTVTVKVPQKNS

[2] = target: T1, human aldehyde dehydrogenase 2 (ALDH2); test: Time-dependent inhibition of ALDH2; type: biochemical; details: for Time-dependent inhibition of ALDH2 (residual ALDH2 catalytic activity): 10 μmol/L secnidazole
[3] = Metabolism of secnidazole in human liver microsomes; type: in vitro ADME; details: human, human liver microsomes, pH 7.4
human liver microsomes = test: as above; type: in vitro ADME
[4] = Metabolism of secnidazole in human plasma in vitro; type: in vitro ADME
[5] = tested on: cDNA‐expressed human CYP enzymes (Supersomes); test: Metabolism of 1 μmol/L secnidazole by cDNA-expressed human CYP enzymes; type: in vitro ADME; details: 0-30 min
[6] = cited from earlier work
CYP1A2 [7] = target: T2, CYP1A2 (Homo sapiens, UniProt P05177); test: Direct inhibition of CYP isoforms in HLM
T2 sequence (P05177 1-516): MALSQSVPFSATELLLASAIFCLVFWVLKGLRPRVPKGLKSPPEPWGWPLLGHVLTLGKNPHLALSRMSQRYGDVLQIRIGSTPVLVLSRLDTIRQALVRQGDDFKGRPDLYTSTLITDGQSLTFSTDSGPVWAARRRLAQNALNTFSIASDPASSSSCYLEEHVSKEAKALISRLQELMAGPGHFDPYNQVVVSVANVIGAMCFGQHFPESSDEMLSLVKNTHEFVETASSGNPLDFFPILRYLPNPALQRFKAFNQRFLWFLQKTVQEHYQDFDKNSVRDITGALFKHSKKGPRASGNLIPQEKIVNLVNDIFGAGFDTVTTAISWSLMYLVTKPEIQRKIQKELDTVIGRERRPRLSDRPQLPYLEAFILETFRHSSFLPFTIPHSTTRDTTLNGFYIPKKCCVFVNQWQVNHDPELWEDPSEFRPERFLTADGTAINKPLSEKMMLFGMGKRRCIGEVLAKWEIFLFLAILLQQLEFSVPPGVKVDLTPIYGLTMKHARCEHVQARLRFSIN

CYP2A6 [8] = target: T3, CYP2A6 (Homo sapiens, UniProt P11509); test: Direct inhibition of CYP isoforms in HLM
T3 sequence (P11509 1-494): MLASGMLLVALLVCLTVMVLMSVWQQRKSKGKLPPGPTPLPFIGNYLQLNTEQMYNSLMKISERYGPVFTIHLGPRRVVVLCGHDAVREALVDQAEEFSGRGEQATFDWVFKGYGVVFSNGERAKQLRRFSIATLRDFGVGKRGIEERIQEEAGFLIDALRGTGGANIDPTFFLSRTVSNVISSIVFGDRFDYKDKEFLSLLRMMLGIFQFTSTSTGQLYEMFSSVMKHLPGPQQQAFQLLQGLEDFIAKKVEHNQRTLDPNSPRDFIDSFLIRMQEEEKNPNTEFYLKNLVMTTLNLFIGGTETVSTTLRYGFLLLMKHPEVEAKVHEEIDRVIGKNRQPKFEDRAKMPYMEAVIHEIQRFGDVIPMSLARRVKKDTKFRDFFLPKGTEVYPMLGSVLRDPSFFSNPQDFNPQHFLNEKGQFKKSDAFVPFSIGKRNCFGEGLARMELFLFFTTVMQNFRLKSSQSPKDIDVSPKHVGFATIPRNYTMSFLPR

CYP2B6 [9] = target: T4, CYP2B6 (Homo sapiens, UniProt P20813); test: Direct inhibition of CYP isoforms in HLM
T4 sequence (P20813 1-491): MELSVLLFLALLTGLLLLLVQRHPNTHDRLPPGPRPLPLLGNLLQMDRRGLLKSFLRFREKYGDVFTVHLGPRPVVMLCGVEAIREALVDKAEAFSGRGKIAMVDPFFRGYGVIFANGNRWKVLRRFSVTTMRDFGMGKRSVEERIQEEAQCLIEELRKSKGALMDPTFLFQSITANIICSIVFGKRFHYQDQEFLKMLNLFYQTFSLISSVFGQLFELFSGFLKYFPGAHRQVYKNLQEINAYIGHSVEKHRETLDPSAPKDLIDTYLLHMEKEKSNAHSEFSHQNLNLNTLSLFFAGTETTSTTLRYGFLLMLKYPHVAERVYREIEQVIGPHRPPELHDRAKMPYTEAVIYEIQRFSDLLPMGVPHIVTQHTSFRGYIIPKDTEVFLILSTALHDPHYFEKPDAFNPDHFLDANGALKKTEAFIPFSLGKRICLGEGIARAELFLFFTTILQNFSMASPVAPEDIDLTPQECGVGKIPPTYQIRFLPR

CYP2C8 [10] = target: T5, CYP2C8 (Homo sapiens, UniProt P10632); test: Direct inhibition of CYP isoforms in HLM
T5 sequence (P10632 1-490): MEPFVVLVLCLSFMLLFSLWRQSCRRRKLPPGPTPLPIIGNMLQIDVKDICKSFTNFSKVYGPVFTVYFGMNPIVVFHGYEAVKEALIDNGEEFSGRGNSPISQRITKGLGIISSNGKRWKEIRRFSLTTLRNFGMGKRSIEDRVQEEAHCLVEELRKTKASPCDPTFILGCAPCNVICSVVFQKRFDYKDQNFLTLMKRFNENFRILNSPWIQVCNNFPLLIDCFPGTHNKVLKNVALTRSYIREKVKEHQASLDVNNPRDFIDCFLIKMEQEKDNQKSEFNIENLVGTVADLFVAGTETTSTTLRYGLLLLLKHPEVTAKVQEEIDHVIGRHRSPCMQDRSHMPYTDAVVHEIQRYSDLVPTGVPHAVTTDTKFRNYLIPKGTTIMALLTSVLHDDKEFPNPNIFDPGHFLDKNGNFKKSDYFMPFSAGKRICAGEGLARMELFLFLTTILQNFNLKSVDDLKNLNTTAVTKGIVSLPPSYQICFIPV

CYP2C9 [11] = target: T6, CYP2C9 (Homo sapiens, UniProt P11712); test: Direct inhibition of CYP isoforms in HLM
CYP2C19 [12] = target: T7, CYP2C19 (Homo sapiens, UniProt P33261); test: Direct inhibition of CYP isoforms in HLM
CYP2D6 [13] = target: T8, CYP2D6 (Homo sapiens, UniProt P10635); test: Direct inhibition of CYP isoforms in HLM
CYP2E1 [14] = target: T9, CYP2E1 (Homo sapiens, UniProt P05181); test: Direct inhibition of CYP isoforms in HLM
CYP1A2 [15] = target: T2, CYP1A2; test: Time-dependent inhibition of CYP isoforms in HLM
CYP2A6 [16] = target: T3, CYP2A6; test: Time-dependent inhibition of CYP isoforms in HLM
CYP2B6 [17] = target: T4, CYP2B6; test: Time-dependent inhibition of CYP isoforms in HLM
CYP2C8 [18] = target: T5, CYP2C8; test: Time-dependent inhibition of CYP isoforms in HLM
CYP2C9 [19] = target: T6, CYP2C9; test: Time-dependent inhibition of CYP isoforms in HLM
CYP2C19 [20] = target: T7, CYP2C19; test: Time-dependent inhibition of CYP isoforms in HLM
CYP2D6 [21] = target: T8, CYP2D6; test: Time-dependent inhibition of CYP isoforms in HLM
CYP2E1 [22] = target: T9, CYP2E1; test: Time-dependent inhibition of CYP isoforms in HLM

T8 sequence (P10635 whole entry, canonical isoform): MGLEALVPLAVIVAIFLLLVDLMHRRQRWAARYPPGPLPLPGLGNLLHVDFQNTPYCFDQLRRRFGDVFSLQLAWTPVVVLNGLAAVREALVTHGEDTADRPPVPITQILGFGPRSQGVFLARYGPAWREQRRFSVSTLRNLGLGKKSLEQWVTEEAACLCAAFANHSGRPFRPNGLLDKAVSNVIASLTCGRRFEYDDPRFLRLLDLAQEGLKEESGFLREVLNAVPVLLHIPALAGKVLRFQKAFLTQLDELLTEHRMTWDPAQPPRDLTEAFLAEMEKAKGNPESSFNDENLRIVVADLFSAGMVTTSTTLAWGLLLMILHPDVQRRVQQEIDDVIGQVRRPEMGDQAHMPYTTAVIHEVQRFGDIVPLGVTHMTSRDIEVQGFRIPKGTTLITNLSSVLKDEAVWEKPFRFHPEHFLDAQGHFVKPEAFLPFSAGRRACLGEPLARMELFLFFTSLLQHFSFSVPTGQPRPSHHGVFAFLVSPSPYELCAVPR
T9 sequence (P05181 whole entry, canonical isoform): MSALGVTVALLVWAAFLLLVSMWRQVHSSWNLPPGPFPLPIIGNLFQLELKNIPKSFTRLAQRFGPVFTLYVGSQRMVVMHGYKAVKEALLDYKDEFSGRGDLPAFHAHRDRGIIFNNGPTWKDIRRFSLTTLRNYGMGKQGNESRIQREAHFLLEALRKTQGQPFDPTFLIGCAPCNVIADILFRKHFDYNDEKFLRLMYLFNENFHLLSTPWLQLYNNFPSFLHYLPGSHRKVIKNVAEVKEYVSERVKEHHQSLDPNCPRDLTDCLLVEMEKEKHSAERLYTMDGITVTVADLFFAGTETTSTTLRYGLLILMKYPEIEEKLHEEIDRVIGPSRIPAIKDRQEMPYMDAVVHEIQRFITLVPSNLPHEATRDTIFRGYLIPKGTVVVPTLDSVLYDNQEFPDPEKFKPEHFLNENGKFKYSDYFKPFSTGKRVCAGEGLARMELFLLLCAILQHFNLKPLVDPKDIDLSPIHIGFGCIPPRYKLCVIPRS
T6 sequence (P11712 whole entry, canonical isoform): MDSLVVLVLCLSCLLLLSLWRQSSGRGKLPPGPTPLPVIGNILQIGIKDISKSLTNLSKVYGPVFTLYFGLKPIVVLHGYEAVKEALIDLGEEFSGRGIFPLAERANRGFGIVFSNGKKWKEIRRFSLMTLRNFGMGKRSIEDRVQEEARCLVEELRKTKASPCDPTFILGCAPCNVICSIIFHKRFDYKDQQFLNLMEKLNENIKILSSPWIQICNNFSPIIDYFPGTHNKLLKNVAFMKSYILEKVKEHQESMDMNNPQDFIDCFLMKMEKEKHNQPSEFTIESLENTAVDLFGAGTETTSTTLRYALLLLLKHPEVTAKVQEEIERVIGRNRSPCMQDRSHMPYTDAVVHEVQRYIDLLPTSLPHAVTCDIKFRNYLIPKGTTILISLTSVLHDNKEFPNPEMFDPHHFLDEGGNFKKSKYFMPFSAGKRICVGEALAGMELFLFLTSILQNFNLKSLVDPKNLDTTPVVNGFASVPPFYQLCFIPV
T7 sequence (P33261 whole entry, canonical isoform): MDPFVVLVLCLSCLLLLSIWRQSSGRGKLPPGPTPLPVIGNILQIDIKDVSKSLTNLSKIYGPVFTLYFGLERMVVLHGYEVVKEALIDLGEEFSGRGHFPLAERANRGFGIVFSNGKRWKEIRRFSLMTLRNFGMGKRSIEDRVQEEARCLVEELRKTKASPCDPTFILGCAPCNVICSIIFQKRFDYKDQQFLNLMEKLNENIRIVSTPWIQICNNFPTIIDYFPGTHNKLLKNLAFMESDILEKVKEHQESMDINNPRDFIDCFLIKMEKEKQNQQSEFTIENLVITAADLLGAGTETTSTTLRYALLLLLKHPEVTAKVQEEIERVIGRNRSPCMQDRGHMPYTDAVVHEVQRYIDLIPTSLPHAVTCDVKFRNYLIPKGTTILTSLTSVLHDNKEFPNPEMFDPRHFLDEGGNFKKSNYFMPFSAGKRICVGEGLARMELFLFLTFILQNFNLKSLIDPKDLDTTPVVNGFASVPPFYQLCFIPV

O=c1c(-c2ccc(O)cc2)coc2cc(O[C@@H]3O[C@H](CO)[C@@H](O)[C@H](O)[C@H]3O)ccc12 [Daidzin]
% Remaining ([1]; Daidzin 0.02 μmol/L): 106%
NADH ([1]; Daidzin 0.02 μmol/L): 132 nmol/min/mg
% Remaining ([1]; Daidzin 0.05 μmol/L): 102%
NADH ([1]; Daidzin 0.05 μmol/L): 127 nmol/min/mg
% Remaining ([1]; Daidzin 0.14 μmol/L): 93%
NADH ([1]; Daidzin 0.14 μmol/L): 117 nmol/min/mg
% Remaining ([1]; Daidzin 0.41 μmol/L): 96%
NADH ([1]; Daidzin 0.41 μmol/L): 120 nmol/min/mg
% Remaining ([1]; Daidzin 1.2 μmol/L): 76%
NADH ([1]; Daidzin 1.2 μmol/L): 95 nmol/min/mg
% Remaining ([1]; Daidzin 3.7 μmol/L): 57%
NADH ([1]; Daidzin 3.7 μmol/L): 72 nmol/min/mg
% Remaining ([1]; Daidzin 11 μmol/L): 27%
NADH ([1]; Daidzin 11 μmol/L): 33 nmol/min/mg
% Remaining ([1]; Daidzin 33 μmol/L): 16%
NADH ([1]; Daidzin 33 μmol/L): 20 nmol/min/mg
% Remaining ([1]; Daidzin 100 μmol/L): 7%
NADH ([1]; Daidzin 100 μmol/L): 8 nmol/min/mg

Cc1ncc([N+](=O)[O-])n1CC(C)O (centres unmarked) [secnidazole]
IC50 [1]: 503 µM
% Remaining ([1]; secnidazole 0.2 μmol/L): 94%
NADH ([1]; secnidazole 0.2 μmol/L): 117 nmol/min/mg
% Remaining ([1]; secnidazole 0.5 μmol/L): 90%
NADH ([1]; secnidazole 0.5 μmol/L): 112 nmol/min/mg
% Remaining ([1]; secnidazole 1.4 μmol/L): 90%
NADH ([1]; secnidazole 1.4 μmol/L): 112 nmol/min/mg
% Remaining ([1]; secnidazole 4.1 μmol/L): 100%
NADH ([1]; secnidazole 4.1 μmol/L): 125 nmol/min/mg
% Remaining ([1]; secnidazole 12.3 μmol/L): 110%
NADH ([1]; secnidazole 12.3 μmol/L): 137 nmol/min/mg
% Remaining ([1]; secnidazole 37 μmol/L): 96%
NADH ([1]; secnidazole 37 μmol/L): 120 nmol/min/mg
% Remaining ([1]; secnidazole 111.1 μmol/L): 79%
NADH ([1]; secnidazole 111.1 μmol/L): 99 nmol/min/mg
% Remaining ([1]; secnidazole 333.3 μmol/L): 63%
NADH ([1]; secnidazole 333.3 μmol/L): 79 nmol/min/mg
% Remaining ([1]; secnidazole 1000 μmol/L): 32%
NADH ([1]; secnidazole 1000 μmol/L): 39 nmol/min/mg
Time-dependent inhibition of ALDH2 (residual ALDH2 catalytic activity) ([2]; preincubation time 0.5): 104
Time-dependent inhibition of ALDH2 (residual ALDH2 catalytic activity) ([2]; preincubation time 1): 103
Time-dependent inhibition of ALDH2 (residual ALDH2 catalytic activity) ([2]; preincubation time 2): 101
Time-dependent inhibition of ALDH2 (residual ALDH2 catalytic activity) ([2]; preincubation time 3): 104
Time-dependent inhibition of ALDH2 (residual ALDH2 catalytic activity) ([2]; preincubation time 4): 101
Time-dependent inhibition of ALDH2 (residual ALDH2 catalytic activity) ([2]; preincubation time 8): 110
Time-dependent inhibition of ALDH2 (residual ALDH2 catalytic activity) ([2]; preincubation time 16): 113
Time-dependent inhibition of ALDH2 (residual ALDH2 catalytic activity) ([2]; preincubation time 24): 131
Time-dependent inhibition of ALDH2 (in words) ([2]; preincubated with ALDH2 enzyme and NAD+ from 1 to 24 minutes, secnidazole at 10 or 100 μmol/L): little or no time‐dependent inhibition
Km [3]: > 6.4 mM
metabolism in HLMs (in words) (human liver microsomes; concentrations up to 6400 µmol/L): very low metabolism
Km (human liver microsomes; read-out: Km for M2 formation, rate linear with substrate concentration): > 6.4 mM
metabolism in human plasma in vitro [4]: no evidence of secnidazole metabolism
metabolism in cDNA‐expressed enzymes [5]: did not demonstrate conclusive evidence of any metabolism
cumulative urinary excretion of free and conjugated secnidazole [6]: approximately 50%
IC50 (CYP1A2 [7]): > 5000 µM
IC50 (CYP2A6 [8]): > 5000 µM
direct inhibition (in words) (CYP2A6 [8]; HLM, CYP2A6): some clear concentration‐dependent inhibition at higher concentration
IC50 (CYP2B6 [9]): > 5000 µM
direct inhibition (in words) (CYP2B6 [9]; HLM, CYP2B6): some clear concentration‐dependent inhibition at higher concentration
IC50 (CYP2C8 [10]): > 5000 µM
IC50 (CYP2C9 [11]): > 5000 µM
IC50 (CYP2C19 [12]): 3870 µM
IC50 (CYP2D6 [13]): > 5000 µM
direct inhibition (in words) (CYP2D6 [13]; HLM, CYP2D6): some clear concentration‐dependent inhibition at higher concentration
IC50 (CYP2E1 [14]): > 5000 µM
IC50 (CYP1A2 [15]): > 500 µM
IC50 (CYP2A6 [16]): > 500 µM
IC50 (CYP2B6 [17]): > 500 µM
IC50 (CYP2C8 [18]): > 500 µM
IC50 (CYP2C9 [19]): > 500 µM
IC50 (CYP2C19 [20]): > 1000 µM
IC50 (CYP2D6 [21]): > 500 µM
IC50 (CYP2E1 [22]): > 500 µM

Reference: publication PMC7416039 (Pharmacology Research & Perspectives, 2020)
